In patent publication US6420569B1, “Process for producing pyrone compounds” (Sumitomo Chemical Company, Limited, priority 2000, dated 2002) one finds knocked-down ratio data, which are given here for 1 compound.

This test deals with houseflies (Musca domestica). Briefly: Knock-down test against housefly. The format is in vivo. Particulars: 0.5% oil solution, 0.7 ml sprayed in 70 cm-cubic glass chamber; ten adult houseflies; 15 minutes after application; two repetitions. On the procedure: (Knock-down Test Against Housefly)
A half part of 4-hydroxy-6-methyl-3-(4-methylpentanoyl)-2-pyrone was dissolved in 10 parts of dichloromethane and mixed with 89.5 parts of Isopar M (isoparaffin produced by Exxon Chemical) for preparing 0.5% oil solution. Part(s) means part(s) by weight.
Ten adult houseflies (Musca domestica) including 5 males and 5 females were released in a 70 cm-cubic glass chamber (volume: […]). By a spray-gun, 0.7 ml of the above oil solution was applied at a pressure of 0.9 kg/cm^2 from a small window on the wall of the chamber. After 15 minutes from application, knocked-down houseflies were observed. As a result of two repetitions, the knocked-down ratio was 95%.

Turning to `Cc1cc(O)c(C(=O)CCC(C)C)c(=O)o1` [4-Hydroxy-6-methyl-3-(4-methylpentanoyl)-2-pyrone], the knocked-down ratio worked out at 95%.
